In PubChem BioAssay (NCI):
“And” between values parts separate entries of the source, which are not always exact repeats. Equal entries are not always repeated.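 Each compound was tested at five concentrations against cells in 96-well plates for 48 hours. GI50: concentration for 50% inhibition of growth. TGI denotes the concentration required for complete inhibition of growth.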

Experiments:
Experiment in all cases: DTP human tumour cell line panel, 48 h
[1] = tested on: OVCAR-4 ovarian
[2] = tested on: MCF7 breast
[3] = tested on: OVCAR-8 ovarian
[4] = tested on: SF-295 CNS
[5] = tested on: RPMI-8226 leukemia
[6] = tested on: TK-10 renal
[7] = tested on: ACHN renal
[8] = tested on: NCI-H460 lung
[9] = tested on: COLO 205 colon
[10] = tested on: MOLT-4 leukemia

| Structure (SMILES) | GI50 [1] | TGI [1] | GI50 [2] | TGI [2] | GI50 [3] | TGI [3] | GI50 [4] | TGI [4] | GI50 [5] | TGI [5] | GI50 [6] | TGI [6] | GI50 [7] | TGI [7] | GI50 [8] | TGI [8] | GI50 [9] | TGI [9] | GI50 [10] | TGI [10] |
| --- | --- | --- | --- | --- | --- | --- | --- | --- | --- | --- | --- | --- | --- | --- | --- | --- | --- | --- | --- | --- |
| COc1ccc2[nH]c(-c3ccccc3)c(C=C(C#N)C#N)c2c1 | 5.36 µM | > 100 µM | 2.16 µM | > 100 µM | 7.71 µM | > 100 µM | 4.15 µM | > 100 µM | 2.62 µM | 20.3 µM | 5.07 µM | > 100 µM | 7.41 µM | > 100 µM | 3.56 µM | > 100 µM | 2.11 µM | 6.83 µM | 3.74 µM | > 100 µM |
| O=C(C[C@@]1(O)C(=O)Nc2c(Cl)ccc(Cl)c21)c1ccc(C2CC2)cc1 | 6.01 µM | 39.8 µM | 0.171 µM | 18.2 µM | 0.577 µM | 19.3 µM | 0.344 µM | 13.3 µM | 0.433 µM | 21.4 µM | 15.1 µM | 46.6 µM | 0.726 µM | 31.3 µM | 0.359 µM | 11.4 µM | 0.298 µM | 2.13 µM | 0.505 µM | 14.6 µM |
| OC(COc1cccc2ccccc12)CN1CCN(c2ccc(Cl)cc2)CC1 (stereo not given) | 21.7 µM | 49.3 µM | 29.9 µM | > 100 µM | 15.2 µM | 41 µM | 11.4 µM | 36.9 µM | 42.9 µM | > 100 µM | 10.1 µM | 26.5 µM | 11.8 µM | > 100 µM | 15.7 µM | > 100 µM | > 100 µM | > 100 µM | > 100 µM | > 100 µM |
| COc1cc(OC)cc(-c2ccc(-c3ccc(C(=N)N)s3)s2)c1 | 1.44 µM | 3.62 µM | 0.271 µM | 1.22 µM | 1.66 µM | 4.16 µM | 1.65 µM | 3.22 µM | 0.286 µM and 0.218 µM | 0.866 µM and 0.483 µM | 1.84 µM | 3.39 µM | 1.45 µM | 3.25 µM | 0.482 µM | 1.79 µM | 0.209 µM | 0.407 µM | 0.396 µM and 0.23 µM | 1.12 µM and 0.486 µM |
| Cc1cc(S(N)(=O)=O)c(S/C(=N\Nc2ccc([N+](=O)[O-])cc2)c2ccc(O)cc2)cc1Cl | 3.43 µM | 7.94 µM | 2.19 µM | 5.06 µM | 5.72 µM | 21.7 µM | 2.07 µM | 3.92 µM | 1.66 µM | 4.3 µM | 2.01 µM | 5.16 µM | 3.09 µM | 12.9 µM | 2.94 µM | 10.1 µM | 4.21 µM | 17.6 µM | 2.97 µM | > 100 µM |
